Patent US4145296A, “Weather-durable aqueous fire retardant stabilized against gelation” (priority 1977, dated 1979)
Like-named read-outs stand apart in the source and are kept apart here.

Columns and labels:
[1] = for Viscosity in centipoises at 1 Hr. / Viscosity in centipoises at 4 Hrs. / Viscosity in centipoises at 6 Min. / Viscosity in centipoises at 21-28 Hrs. / Viscosity in centipoises at 0: additive at 3 percent weight; for gel inhibition / stabilization of aqueous dispersion (in words): conclusion from Tables II and III
[2] = pH of the aqueous dispersion; assay type: physicochemical; settings: for pH (MEA At 3%): 3% MEA; for Initial Dispersion pH: additive at 3 percent weight in Control dispersion
[3] = thermodynamic; cited from earlier work

| Structure (SMILES) | Viscosity in centipoises at 1 Hr. ([1]; 1 Hr.) [centipoises] | Viscosity in centipoises at 4 Hrs. ([1]; 4 Hrs.) [centipoises] | Viscosity in centipoises at 6 Min. ([1]; 6 Min.) [centipoises] | Viscosity in centipoises at 0 ([1]; time 0) [centipoises] | Initial Dispersion pH [2] | also measured |
| --- | --- | --- | --- | --- | --- | --- |
| N [Ammonium hydroxide] | 550 | 575 | 400 | 400 |  | Viscosity in centipoises at 21-28 Hrs. ([1]; 21-28 Hrs.): 750 centipoises; gel inhibition / stabilization of aqueous dispersion (in words) [1]: good stabilization results |
| O=P(O)(O)OP(=O)(O)O [Tetrasodium pyrophosphate . 10H2 O] | 900 | 1300 | 600 | 500 |  |  |
| NCCO [Monoethanolamine, 2-aminoethanol] |  |  |  |  |  | Viscosity with Monoethanolamine (MEA) ([1]; 1.5% MEA in Control dispersion, time 0): 610 Centipoises; Viscosity with Monoethanolamine (MEA) ([1]; 1.5% MEA, 1 Hr.): 760 Centipoises; Viscosity with Monoethanolamine (MEA) ([1]; 1.5% MEA, 4 Hrs.): 1125 Centipoises; Viscosity with Monoethanolamine (MEA) ([1]; 1.5% MEA, 6 Min.): 625 Centipoises; Viscosity with Monoethanolamine (MEA) ([1]; 2% MEA in Control dispersion, time 0): 650 Centipoises; Viscosity with Monoethanolamine (MEA) ([1]; 2% MEA, 1 Hr.): 750 Centipoises; Viscosity with Monoethanolamine (MEA) ([1]; 2% MEA, 4 Hrs.): 925 Centipoises; Viscosity with Monoethanolamine (MEA) ([1]; 2% MEA, 6 Min.): 700 Centipoises; Viscosity with Monoethanolamine (MEA) ([1]; 3% MEA in Control dispersion, time 0): 625 Centipoises; Viscosity with Monoethanolamine (MEA) ([1]; 3% MEA, 1 Hr.): 700 Centipoises; Viscosity with Monoethanolamine (MEA) ([1]; 3% MEA, 4 Hrs.): 750 Centipoises; Viscosity with Monoethanolamine (MEA) ([1]; 3% MEA, 6 Min.): 700 Centipoises; Viscosity with Monoethanolamine (MEA) ([1]; 3% MEA, 21-28 Hrs.): 1150 Centipoises; pH (MEA At 3%) ([2]; 1 Hr.): 9.1; pH (MEA At 3%) ([2]; 4 Hrs.): 9.1; pH (MEA At 3%) ([2]; 6 Min.): 9.2; pH (MEA At 3%) ([2]; 21-28 Hrs.): 8.7; pH (MEA At 3%) ([2]; time 0): 9.3 |
| N.N.O=C(O)O [Ammonium carbonate] |  |  |  |  |  | Viscosity in centipoises at 1 Hr. ([1]; 1 Hr., listed as Ammonium carbonate (20%)): 850 centipoises; Viscosity in centipoises at 1 Hr. ([1]; 1 Hr., listed as Ammonium carbonate (100%)): 525 centipoises; Viscosity in centipoises at 4 Hrs. ([1]; 4 Hrs., listed as Ammonium carbonate (20%)): 1900 centipoises; Viscosity in centipoises at 4 Hrs. ([1]; 4 Hrs., listed as Ammonium carbonate (100%)): 800 centipoises; Viscosity in centipoises at 6 Min. ([1]; 6 Min., listed as Ammonium carbonate (20%)): 575 centipoises; Viscosity in centipoises at 6 Min. ([1]; 6 Min., listed as Ammonium carbonate (100%)): 350 centipoises; Viscosity in centipoises at 21-28 Hrs. ([1]; 21-28 Hrs.): gel; Viscosity in centipoises at 0 ([1]; time 0, listed as Ammonium carbonate (20%)): 475 centipoises; Viscosity in centipoises at 0 ([1]; time 0, listed as Ammonium carbonate (100%)): 300 centipoises; longer term storage of the aqueous dispersion (in words) ([1]; longer term storage): evidence of polymerization and gas evolution |
| C1CCNCC1 [Piperidine] | 725 | 800 | 650 | 600 | 9.9 |  |
| C1COCCN1 [Morpholine, tetrahydro-p-oxazine] | 725 | 800 | 525 | 550 | 8.7 | Viscosity in centipoises at 21-28 Hrs. ([1]; 21-28 Hrs.): 2700 centipoises |
| O=P([O-])([O-])O.[Na+].[Na+] [Disodium phosphate anhydrous] | 875 | 1900 | 550 | 425 | 7.2 |  |
| O.O.O.O.O.O.O.O=P([O-])([O-])O.[Na+].[Na+] [Disodium phosphate . 7H2 O] | 975 | 2100 | 600 | 500 | 7.0 |  |
| CCN1CCOCC1 [N-Ethylmorpholine] |  |  |  |  |  | pKa at 25° C. [3]: 7.67 |
| CC(O)CN(CC(C)O)CC(C)O (stereo not shown) [Triisopropanolamine] |  |  |  |  |  | pKa at 25° C. [3]: 7.86 |
| O.O.O.O.O.O.O.O.O.O.O.O.O=P([O-])([O-])[O-].[Na+].[Na+].[Na+] [Trisodium phosphate . 12H2 O] | 850 | 1500 | 600 | 450 | 7.7 |  |
| NCCN [Ethylenediamine, diaminoethane] | 525 | 500 | 500 | 450 |  | gel inhibition / stabilization of aqueous dispersion (in words) [1]: superior gel inhibitors; pKa at 25° C. [3]: greater than 8.0 |
| [K+].[OH-] [Potassium hydroxide] |  |  |  |  |  | Viscosity in centipoises at 21-28 Hrs. ([1]; 21-28 Hrs.): 1450 centipoises |
| NC(N)=O [Urea] | 800 | 1800 | 650 | 600 | 6.6 |  |
| CN(C)C=O [Dimethyl formamide] | 900 | 3100 | 500 | 475 |  |  |
| C1N2CN3CN1CN(C2)C3 [Hexamethylene tetramine] | 950 | 2000 | 550 | 500 | 6.7 |  |
| OCCNCCO [Diethanolamine] | 750 | 875 |  | 600 | 9.0 |  |
